According to patent publication US20180002400A1, “SHORT PEPTIDE-BASED THERAPEUTIC AGENT AND MEDICINAL COMPOSITION INCLUDING THE SAME FOR INHIBITING ACTIVITIES OF CANCER CELLS” (NATIONAL CHENG KUNG UNIVERSITY, priority 2015, published 2018):

Assays:
breast cancer MB231 cell = experiment: Sphere formation (cancer stemness) induced by euPTX3; type: cell-based, human; settings: short peptide 10 μg/mL or 225 nM + euPTX3 2.5 μg/mL, 2 weeks, FIG. 1C
Method: (§1) Each well of the multi-well plate with ultra-low attachment surface (Corning Inc.) was inoculated with the cell density 5×10^3 cells/well of the breast cancer MB231 cell, the lung cancer A549 cell and the nasopharyngeal cancer HONE1 cell, all of which were co-cultured with the short peptides R137, GI40, KT44 (10 μg/mL or 225 nM of the short peptide) and the polypeptide euPTX3 (2.5 μg/mL) of Example 1 in serum-free medium DMEM/F12 (Gibco) [containing B27 (Invitrogen), 20 ng/mL of epidermal growth factor (EGF; Abcam) and 10 ng/mL of basic Fibroblast Growth Factor (bFGF; Peprotech)]. After 2 weeks of cultivation, the cell spheres were observed by optical microscopy.

lung cancer A549 cell [1] = experiment: as above; type: cell-based, human; settings: short peptide 10 μg/mL or 225 nM + euPTX3 2.5 μg/mL, 2 weeks, FIG. 2A
Method: as §1

[2] = system: nasopharyngeal cancer HONE1 cell; experiment: as above; type: cell-based, human; settings: short peptide 10 μg/mL or 225 nM + euPTX3 2.5 μg/mL, 2 weeks, FIG. 3A
Method: as §1

[3] = system: drug-resistant breast cancer MB231R (MBR) cells; experiment: Cancer cell migration (Boyden chamber) induced by euPTX3; type: cell-based, human
Method: [The procedure below names another cell line; the source lists this cell line under the same test.] (§2) The cell density 5×10^4 cells/well of the breast cancer MB231 cell, the lung cancer A549 cell and the nasopharyngeal cancer HONE1 cell were seeded into each upper insert of 24-well plate (containing 8-μm pore insert per well; BD Biosciences) for 19 hours, and each lower well was added with the short peptides RI37, GI40 and KT44 (10 μg/mL or 225 nM of the short peptide) and the polypeptide euPTX3 (2.5 μg/mL) of Example 1, for evaluating the influence of migration of the cancer cell of Example 2 using several short peptides of Example 1.
(§3) The cell density 5×10^4 cells/well of the breast cancer MB231 cell, the lung cancer A549 cell and the nasopharyngeal cancer HONE1 cell were seeded into each upper insert of Boyden chamber for 3 hours of cultivation.
(§4) And then, the medium in each upper insert was replaced by serum-free medium, and the medium in each lower well was added with the short peptides RI37, GI40, KT44 and the polypeptide euPTX3 of Example 1. The cells inside each upper insert were wiped with cotton swabs and removed after 16 hours of cultivation. Remaining cells that had migrated to the bottom of the insert membrane were stained by 4′,6-diamidino-2-phenylindole (DAPI; Invitrogen) and calculated under fluorescence microscopy with 200-fold magnification.

lung cancer A549 cell [4] = experiment: as above; type: cell-based, human; settings: A549; short peptide 10 μg/mL + euPTX3 2.5 μg/mL; FIG. 2C left panel
Method: as §2, §3, §4

[5] = system: nasopharyngeal cancer HONE1 cell; experiment: as above; type: cell-based, human; settings: HONE1; short peptide 10 μg/mL + euPTX3 2.5 μg/mL; FIG. 3C left panel
Method: as §2, §3, §4

lung cancer A549 cell [6] = experiment: Cancer cell invasion (matrigel-coated insert) induced by euPTX3; type: cell-based, human; settings: A549; short peptide 10 μg/mL + euPTX3 2.5 μg/mL; FIG. 2C right panel
Method: (§5) The cell density 5×10^4 cells/well of the breast cancer MB231 cell, the lung cancer A549 cell and the nasopharyngeal cancer HONE1 cell were seeded into each upper insert of 24-well plate (containing 8-μm pore insert per well; BD Biosciences), the upper insert and the lower well were separated by the polyethelene terephthalate membrane coated with matrigel (purchased from BD Bioscience), and cultured for 3 hours.
as §4, with “Next,” for “And then,”, “euPTX3 and pPTX3/C” for “euPTX3”, “4′, 6-diamidino-2-phenylindole” for “4′,6-diamidino-2-phenylindole”

[7] = system: nasopharyngeal cancer HONE1 cell; experiment: as above; type: cell-based, human; settings: HONE1; short peptide 10 μg/mL + euPTX3 2.5 μg/mL; FIG. 3C right panel
Method: as §5
as §4, with “Next,” for “And then,”, “euPTX3 and pPTX3/C” for “euPTX3”, “4′, 6-diamidino-2-phenylindole” for “4′,6-diamidino-2-phenylindole”

[8] = system: drug-resistant 4T1R breast cancer; experiment: Allograft tumor model, CDDP-resistant 4T1R cells in BALB/c mice; type: in vivo, mouse; settings: 4T1R in BALB/c mice; for drug resistance generated by the tumor: 50 μg short peptide intratumorally twice weekly combined with CDDP 5 mg/kg i.p. once weekly; for drug resistance generated by the tumor / tumor growth (tumor size): FIG. 4A; for tumor growth (tumor size): 50 μg short peptide intratumorally twice weekly; for tumor metastasis and growth (images of tumors of various organs, epi-fluorescence radiance efficiency): IVIS imaging; for tumor metastasis (number of metastatic nodules per lung) / tumor growth (tumor weight per lung): sacrificed after six weeks; for tumor metastasis (number of metastatic nodules per lung): FIG. 4B left panel; for tumor growth (tumor weight per lung): FIG. 4B right panel
Method: In this Example, 1×10^6 mCherry fluorescent protein-labeled CDDP-resistant mouse 4T1 cells (4T1R; ATCC CRL-2539) were inoculated subcutaneously to the rear side of the back of six to eight-week-old female BALB/c mice (purchased from Laboratory Animal Center of National Cheng Kung University). After 1 week of inoculation, the mice were intraperitoneally injected with 5 mg/kg of CDDP [dissolved in 1% (w/v) DMSO] or only 1% (w/v) of DMSO once weekly, and intratumorally uninjected or injected with 50 μg of the short peptides RI37, GI40 and KT44 of Example 1 twice weekly. The mice were sacrificed after six weeks of inoculation. Spleen, kidneys, lungs and liver were obtained, tumor weight of those organs were measured according to 6 replications per group, and the metastatic activity and the number of metastatic nodules per organ were confirmed by IVIS Spectrum Imaging System 200 (Caliper). The tumor size was measured by a commercial external caliper, and the tumor volume (V) was calculated by the following formula (I): […]
In the formula (I), w was referred to tumor width, l was referred to tumor length. Each condition of the experiment was repeated at least thrice.

[9] = MB231R (MBR), identical molecular number: euPTX3 2.5 μg/mL, RI37 3.7 μg/mL, GI40 4 μg/mL, pPTX3/C 10 μg/mL, FIG. 5B left panel
[10] = breast cancer cells, short peptide 10 μg/mL + euPTX3 2.5 μg/mL, FIG. 1E left panel

Row | Substance | number of spheres induced by the polypeptide euPTX3 (breast cancer MB231 cell) | number of spheres induced by the polypeptide euPTX3 (lung cancer A549 cell [1]) | number of spheres induced by the polypeptide euPTX3 [2] | migrated cell numbers induced by the polypeptide euPTX3 [3, 9] | migrated cell numbers induced by the polypeptide euPTX3 [3, 10] | migrated cell numbers induced by the polypeptide euPTX3 (lung cancer A549 cell [4]) | migrated cell numbers induced by the polypeptide euPTX3 [5] | invasive cell numbers induced by the polypeptide euPTX3 (lung cancer A549 cell [6]) | invasive cell numbers induced by the polypeptide euPTX3 [7] | drug resistance generated by the tumor [8] | tumor growth (tumor size) [8] | tumor metastasis and growth (images of tumors of various organs, epi-fluorescence radiance efficiency) ([8]; FIG. 4C) | tumor metastasis (number of metastatic nodules per lung) [8] | tumor growth (tumor weight per lung) [8] | metastatic nodules in organs (imaging) ([8]; FIG. 4C)
1 | GI40: artificially synthetic short peptide having the amino acid sequence listed as SEQ ID NO:2, designed from human PTX3 (NP_002843.2) (GGGFDETLAFSGRLTGFNIWDSVLSNEEIRETGGAESCHI; The 320th amino acid to 359th amino acid of Human sapiens PTX3 (GI40)) | could effectively inhibit the number of spheres | could effectively inhibit the number of spheres | could effectively inhibit the number of spheres | could effectively inhibit the migrated cell numbers | could effectively inhibit the migrated cell numbers | could effectively inhibit the migrated cell numbers | could effectively inhibit the migrated cell numbers | could effectively inhibit the invasive cell numbers | could effectively inhibit the invasive cell numbers | reduce the drug resistance | could inhibit tumor growth | could inhibit tumor metastasis and growth | could inhibit tumor metastasis | could inhibit tumor metastasis and growth | 
2 | KT44: artificially synthetic peptide having the amino acid sequence listed as SEQ ID NO:3 (KLVAEAMVSLGRWTHLCGTWNSEEGLTSLWVNGELAATTVEMAT; The 255th amino acid to 298th amino acid of Human sapiens PTX3 (KT44)) | could not inhibit the number of spheres | could not inhibit the number of spheres | could not inhibit the number of spheres |  | could not inhibit the migrated cell numbers | could not inhibit the migrated cell numbers | could not inhibit the migrated cell numbers | could not inhibit the invasive cell numbers | could not inhibit the invasive cell numbers |  | could not significantly inhibit the tumor growth | could not significantly inhibit tumor metastasis and growth | could not significantly inhibit tumor metastasis | could not significantly inhibit tumor metastasis and growth | metastatic nodules was found in lungs
3 | RI37: artificially synthetic short peptide having the amino acid sequence listed as SEQ ID NO:1, designed from human PTX3 (NP_002843.2) (RPMRLESFSACIWVKATDVLNKTILFSYGTKRNPYEI; The 200th amino acid to 236th amino acid of Human sapiens PTX3 (RI37)) | could effectively inhibit the number of spheres | could effectively inhibit the number of spheres | could effectively inhibit the number of spheres | could effectively inhibit the migrated cell numbers | could effectively inhibit the migrated cell numbers | could effectively inhibit the migrated cell numbers | could effectively inhibit the migrated cell numbers | could effectively inhibit the invasive cell numbers | could effectively inhibit the invasive cell numbers | reduce the drug resistance | could inhibit tumor growth | could inhibit tumor metastasis and growth | could inhibit tumor metastasis | could inhibit tumor metastasis and growth | 
